# Laboratory results from patent US20230201217A1 (priority 2019, published 2023).
# Legend:
# [1] = test system: rats, cocaine seeking behavior; details: 40 mg/kg i.p.; cited from earlier work
# [2] = test system: human peripheral blood lymphocytes (HPBL); experiment: In vitro chromosome aberration test; format: cell-based
# Protocol: Based on precipitates observed in the range-finding assay, concentrations used during the definitive chromosome aberration assay were a) 7.5, 15, 25, 50, 100, and 150 μg/mL in the 3-hour treatments with and without metabolic activation, and b) 1.0, 15, 25, 30, 35, 40, 45, 50, 55, 60, and 75 μg/mL in the 22-hour treatment without metabolic activation. These cultures along with the vehicle and one concentration of positive control for each treatment condition were analyzed for aberrations. Structural chromosome aberrations were scored for each concentration from a total of 200 metaphase cells (when possible) or ≥30 aberrant cells. Numerical aberrations were evaluated in 400 metaphase cells per concentration.
# CD-1 mice = experiment: 14-day oral gavage GLP toxicity study in CD-1 mice; format: in vivo, mouse
# Protocol: All test article-treated animals underwent up-titration of dosage levels prior to reaching the maximum daily dose, which was administered for 14 consecutive days. […] The dose volume was 10 mL/kg for all groups. Groups 1 and 4 each consisted of 25 animals/sex and Groups 2-3 each consisted of 20 animals for each sex. Following 14 days of dose administration, 15 mice/sex/toxicology group were euthanized; the remaining 5, (10 for the control and high dose group) mice/sex/toxicology group were euthanized following a 14-day nondosing (recovery) period. Following the final blood collection (study day 13), all toxicokinetic animals (from a satellite group of 18 animals/sex/dose level) were euthanized.
# For toxicology assessment, all animals were observed twice daily for mortality and moribundity. Clinical observations were recorded daily, and detailed physical examinations were conducted weekly. Body weights and food consumption were recorded twice weekly. Body temperature was recorded prior to dosing and following dosing at the time that post-dosing clinical observations were conducted. Functional observational battery (FOB) data were recorded for all animals near the start of the treatment period, near the end of the treatment period, and near the end of the recovery period. Ophthalmic examinations were performed during pretest and near the end of the dosing period. At the primary necropsy 10 animals/sex/group and at the recovery necropsy 5 animals/sex/group, were selected for complete necropsies, clinical pathology assessment (hematology and serum chemistry), organ weight collection, and microscopic examination of a full list of tissues. At each termination interval, 5 animals/sex/group were assigned for neuropathology assessments that involved perfusion fixation, comprehensive sectioning of the brain and collection of selected peripheral nerves, and the employment of special stains used to detect subtle neuronal injury.
# cynomolgus monkeys = experiment: 14-day nasogastric gavage GLP toxicity study in cynomolgus monkeys; format: in vivo, cynomolgus monkey; details: for Bone marrow, femur: Depletion, mixed; number with observation / Liver: Hypertrophy, hepatocellular, panlobular; number with observation / Thymus: Depletion, lymphoid, cortex; number with observation: 3 examined
# Excerpt: Assessments of neurobehavioral effects and general toxicity were based on mortality, functional observational battery (FOB) evaluations, clinical observations, body weight, and body temperature; ophthalmoscopic, electrocardiographic examinations; and anatomic and clinical pathology. The anatomical pathology evaluations included histopathology of a full list of tissues from all animals and a comprehensive evaluation of the central nervous system (including selected peripheral nerves) utilizing whole body perfusion and special stains. Bone marrow smears from all animals were evaluated microscopically. Complete differentials and myeloid-erythroid (ME) ratios were performed. Toxicokinetic assessment was conducted for the test article and metabolites.
smiles,measurement,setting,value
"COCCC1CC2CN3CCc4c([nH]c5ccccc45)C(C(=O)OC)(C2)C13.Cl (stereo not drawn) [18-MC HCl, 18-Methoxycoronaridine hydrochloride]",reinstatement effect of cues associated with cocaine self-administration,[1],blocked the reinstatement effect
same,structural chromosome aberrations,[2]; with metabolic activation,positive
same,structural chromosome aberrations,[2]; without metabolic activation,negative
same,mortality,"CD-1 mice; 100 mg/kg/day group, Days −1 and 12",two male mice in the 100 mg/kg/day group were found dead
same,HED of well tolerated dose,"CD-1 mice; female mice, 100 mg/kg/day",8 mg/kg/day
same,NOAEL,CD-1 mice; females,100 mg/kg/day
same,HED of well tolerated dose,"CD-1 mice; male mice, 50 mg/kg/day",4 mg/kg/day
same,NOAEL,CD-1 mice; males,50 mg/kg/day
same,"neurobehavioral findings, Functional Observational Battery","CD-1 mice; up to 100 mg/kg/day, except non-adverse decreased body temperature",no noted neurobehavioral findings
same,HED of well tolerated dose,cynomolgus monkeys; 50 mg/kg/day,16 mg/kg/day
same,"Bone marrow, femur: Depletion, mixed, mild; number with observation",cynomolgus monkeys; 50 mg/kg/day F,0
same,"Bone marrow, femur: Depletion, mixed, minimal; number with observation",cynomolgus monkeys; 50 mg/kg/day F,0
same,"Bone marrow, femur: Depletion, mixed, moderate; number with observation",cynomolgus monkeys; 50 mg/kg/day F,0
same,"Bone marrow, rib: Depletion, mixed, mild; number with observation",cynomolgus monkeys; 50 mg/kg/day F,0
same,"Bone marrow, rib: Depletion, mixed, minimal; number with observation",cynomolgus monkeys; 50 mg/kg/day F,0
same,"Bone marrow, rib: Depletion, mixed, moderate; number with observation",cynomolgus monkeys; 50 mg/kg/day F,0
same,"Bone marrow, rib: Depletion, mixed; number with observation",cynomolgus monkeys; 50 mg/kg/day F,0
same,"Bone marrow, sternum: Depletion, mixed, mild; number with observation",cynomolgus monkeys; 50 mg/kg/day F,0
same,"Bone marrow, sternum: Depletion, mixed, minimal; number with observation",cynomolgus monkeys; 50 mg/kg/day F,0
same,"Bone marrow, sternum: Depletion, mixed, moderate; number with observation",cynomolgus monkeys; 50 mg/kg/day F,0
same,"Bone marrow, sternum: Depletion, mixed; number with observation",cynomolgus monkeys; 50 mg/kg/day F,0
same,"Liver: Hypertrophy, hepatocellular, panlobular, mild; number with observation",cynomolgus monkeys; 50 mg/kg/day F,3
same,"Liver: Hypertrophy, hepatocellular, panlobular, minimal; number with observation",cynomolgus monkeys; 50 mg/kg/day F,0
same,"Thymus: Depletion lymphoid, generalized, mild; number with observation",cynomolgus monkeys; 50 mg/kg/day F,1
same,"Thymus: Depletion lymphoid, generalized, moderate; number with observation",cynomolgus monkeys; 50 mg/kg/day F,0
same,"Thymus: Depletion lymphoid, generalized; number with observation",cynomolgus monkeys; 50 mg/kg/day F,1
same,"Thymus: Depletion, lymphoid, cortex, mild; number with observation",cynomolgus monkeys; 50 mg/kg/day F,0
same,"Thymus: Depletion, lymphoid, cortex, minimal; number with observation",cynomolgus monkeys; 50 mg/kg/day F,2
same,"Thymus: Depletion, lymphoid, cortex, moderate; number with observation",cynomolgus monkeys; 50 mg/kg/day F,0
same,mean cumulative body gain (Days 1-14),cynomolgus monkeys; 50 mg/kg/day F,-0.08 kg
same,"Bone marrow, femur: Depletion, mixed; number with observation",cynomolgus monkeys; 50 mg/kg/day F,0
same,"Liver: Hypertrophy, hepatocellular, panlobular; number with observation",cynomolgus monkeys; 50 mg/kg/day F,3
same,"Thymus: Depletion, lymphoid, cortex; number with observation",cynomolgus monkeys; 50 mg/kg/day F,2
same,"Bone marrow, femur: Depletion, mixed, mild; number with observation",cynomolgus monkeys; 50 mg/kg/day M,0
same,"Bone marrow, femur: Depletion, mixed, minimal; number with observation",cynomolgus monkeys; 50 mg/kg/day M,0
same,"Bone marrow, femur: Depletion, mixed, moderate; number with observation",cynomolgus monkeys; 50 mg/kg/day M,0
same,"Bone marrow, rib: Depletion, mixed, mild; number with observation",cynomolgus monkeys; 50 mg/kg/day M,0
same,"Bone marrow, rib: Depletion, mixed, minimal; number with observation",cynomolgus monkeys; 50 mg/kg/day M,0
same,"Bone marrow, rib: Depletion, mixed, moderate; number with observation",cynomolgus monkeys; 50 mg/kg/day M,0
same,"Bone marrow, rib: Depletion, mixed; number with observation",cynomolgus monkeys; 50 mg/kg/day M,0
same,"Bone marrow, sternum: Depletion, mixed, mild; number with observation",cynomolgus monkeys; 50 mg/kg/day M,0
same,"Bone marrow, sternum: Depletion, mixed, minimal; number with observation",cynomolgus monkeys; 50 mg/kg/day M,0
same,"Bone marrow, sternum: Depletion, mixed, moderate; number with observation",cynomolgus monkeys; 50 mg/kg/day M,0
same,"Bone marrow, sternum: Depletion, mixed; number with observation",cynomolgus monkeys; 50 mg/kg/day M,0
same,"Liver: Hypertrophy, hepatocellular, panlobular, mild; number with observation",cynomolgus monkeys; 50 mg/kg/day M,0
same,"Liver: Hypertrophy, hepatocellular, panlobular, minimal; number with observation",cynomolgus monkeys; 50 mg/kg/day M,0
same,"Thymus: Depletion lymphoid, generalized, mild; number with observation",cynomolgus monkeys; 50 mg/kg/day M,0
same,"Thymus: Depletion lymphoid, generalized, moderate; number with observation",cynomolgus monkeys; 50 mg/kg/day M,0
same,"Thymus: Depletion lymphoid, generalized; number with observation",cynomolgus monkeys; 50 mg/kg/day M,0
same,"Thymus: Depletion, lymphoid, cortex, mild; number with observation",cynomolgus monkeys; 50 mg/kg/day M,0
same,"Thymus: Depletion, lymphoid, cortex, minimal; number with observation",cynomolgus monkeys; 50 mg/kg/day M,2
same,"Thymus: Depletion, lymphoid, cortex, moderate; number with observation",cynomolgus monkeys; 50 mg/kg/day M,0
same,mean cumulative body gain (Days 1-14),cynomolgus monkeys; 50 mg/kg/day M,-0.22 kg
same,"Bone marrow, femur: Depletion, mixed; number with observation",cynomolgus monkeys; 50 mg/kg/day M,0
same,"Liver: Hypertrophy, hepatocellular, panlobular; number with observation",cynomolgus monkeys; 50 mg/kg/day M,0
same,"Thymus: Depletion, lymphoid, cortex; number with observation",cynomolgus monkeys; 50 mg/kg/day M,2
same,"Bone marrow, femur: Depletion, mixed, mild; number with observation",cynomolgus monkeys; 150 mg/kg/day F,0
same,"Bone marrow, femur: Depletion, mixed, minimal; number with observation",cynomolgus monkeys; 150 mg/kg/day F,0
same,"Bone marrow, femur: Depletion, mixed, moderate; number with observation",cynomolgus monkeys; 150 mg/kg/day F,0
same,"Bone marrow, rib: Depletion, mixed, mild; number with observation",cynomolgus monkeys; 150 mg/kg/day F,0
same,"Bone marrow, rib: Depletion, mixed, minimal; number with observation",cynomolgus monkeys; 150 mg/kg/day F,0
same,"Bone marrow, rib: Depletion, mixed, moderate; number with observation",cynomolgus monkeys; 150 mg/kg/day F,0
same,"Bone marrow, rib: Depletion, mixed; number with observation",cynomolgus monkeys; 150 mg/kg/day F,0
same,"Bone marrow, sternum: Depletion, mixed, mild; number with observation",cynomolgus monkeys; 150 mg/kg/day F,0
same,"Bone marrow, sternum: Depletion, mixed, minimal; number with observation",cynomolgus monkeys; 150 mg/kg/day F,0
same,"Bone marrow, sternum: Depletion, mixed, moderate; number with observation",cynomolgus monkeys; 150 mg/kg/day F,0
same,"Bone marrow, sternum: Depletion, mixed; number with observation",cynomolgus monkeys; 150 mg/kg/day F,0
same,"Liver: Hypertrophy, hepatocellular, panlobular, mild; number with observation",cynomolgus monkeys; 150 mg/kg/day F,2
same,"Liver: Hypertrophy, hepatocellular, panlobular, minimal; number with observation",cynomolgus monkeys; 150 mg/kg/day F,1
same,"Thymus: Depletion lymphoid, generalized, mild; number with observation",cynomolgus monkeys; 150 mg/kg/day F,0
same,"Thymus: Depletion lymphoid, generalized, moderate; number with observation",cynomolgus monkeys; 150 mg/kg/day F,0
same,"Thymus: Depletion lymphoid, generalized; number with observation",cynomolgus monkeys; 150 mg/kg/day F,0
same,"Thymus: Depletion, lymphoid, cortex, mild; number with observation",cynomolgus monkeys; 150 mg/kg/day F,2
same,"Thymus: Depletion, lymphoid, cortex, minimal; number with observation",cynomolgus monkeys; 150 mg/kg/day F,0
same,"Thymus: Depletion, lymphoid, cortex, moderate; number with observation",cynomolgus monkeys; 150 mg/kg/day F,1
